According to the supplement of paper PMC8671470:

Legend:
Details in all cases: 72 h
MV4-11 [1] = test system: MV4-11
Method in brief: (§1)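 For the IC50, dose–response curves were fitted with a log-logistic model. The data came from fifteen myeloid leukaemia cell lines grown in RPMI 1640 at densities in the linear growth range and incubated in 384-well plates for 72 h at 37 °C under 5% CO2. Doses were five tenfold steps from 1 to 10,000 nM in duplicate, and luminescent ATP viability was normalised to vehicle and to a positive control at 10 µM before four-parameter fitting.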

K-562 [2] = test system: K-562
Method in brief: as §1

Mono-Mac-6 [3] = test system: Mono-Mac-6
Method in brief: as §1

KCL-22 [4] = test system: KCL-22
Method in brief: as §1

ML-2 [5] = test system: ML-2
Method in brief: as §1

KG-1 [6] = test system: KG-1
Method in brief: as §1

LAMA-84 [7] = test system: LAMA-84
Method in brief: as §1

MOLM-13 [8] = test system: MOLM-13
Method in brief: as §1

KU-812 [9] = test system: KU-812
Method in brief: as §1

HL-60 [10] = test system: HL-60
Method in brief: as §1

THP-1 [11] = test system: THP-1
Method in brief: as §1

SHI-1 [12] = test system: SHI-1
Method in brief: as §1

HEL [13] = test system: HEL
Method in brief: as §1

NOMO-1 [14] = test system: NOMO-1
Method in brief: as §1

BV-173 [15] = test system: BV-173
Method in brief: as §1

MV4-11 [16] = assay: cell viability (% survival relative to DMSO control, bortezomib = 0%); higher = less cytotoxic
Method in brief: (§2)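 Percent survival is reported as the mean of duplicate wells. Cells from 10 AML and 5 CML lines were plated in 384-well plates containing compounds at 1, 10, 100, 1000 or 10000 nM and kept for 72 h at 37 °C in 5% CO2. Readout used CellTiter-Glo luminescence, scaled so that vehicle equals 100% and a 10 µM positive control equals 0%.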

K-562 [17] = assay: as above
Method in brief: as §2

Mono-Mac-6 [18] = assay: as above
Method in brief: as §2

KCL-22 [19] = assay: as above
Method in brief: as §2

ML-2 [20] = assay: as above
Method in brief: as §2

KG-1 [21] = assay: as above
Method in brief: as §2

LAMA-84 [22] = assay: as above
Method in brief: as §2

MOLM-13 [23] = assay: as above
Method in brief: as §2

KU-812 [24] = assay: as above
Method in brief: as §2

HL-60 [25] = assay: as above
Method in brief: as §2

THP-1 [26] = assay: as above
Method in brief: as §2

SHI-1 [27] = assay: as above
Method in brief: as §2

HEL [28] = assay: as above
Method in brief: as §2

NOMO-1 [29] = assay: as above
Method in brief: as §2

BV-173 [30] = assay: as above
Method in brief: as §2

Cn1cc(C[C@@H](N)C(=O)O)c2ccccc21 [Indoximod]
Details	IC50 (cell viability) [µM]
BV-173 [15]	> 10
HEL [13]	> 10
HL-60 [10]	> 10
K-562 [2]	> 10
KCL-22 [4]	> 10
KG-1 [6]	> 10
KU-812 [9]	> 10
LAMA-84 [7]	> 10
ML-2 [5]	> 10
MOLM-13 [8]	> 10
MV4-11 [1]	> 10
Mono-Mac-6 [3]	> 10
NOMO-1 [14]	> 10
SHI-1 [12]	> 10
THP-1 [11]	> 10

cell viability [%]
Details	1 nM	10 nM	100 nM	1000 nM	10000 nM
BV-173 [30]	134	95.3	90.6	84.7	100
HEL [28]	110	97.1	85.8	120	100
HL-60 [25]	102	90.2	116	97.3	106
K-562 [17]	103	108	79.8	87.5	89.9
KCL-22 [19]	109	86.8	82.5	106	101
KG-1 [21]	107	99	102	99.2	97.6
KU-812 [24]	93.8	101	90.9	105	95.6
LAMA-84 [22]	94.5	97.2	91.1	113	94.7
ML-2 [20]	97.8	97.2	100	106	92.9
MOLM-13 [23]	104	97.7	81.3	86.8	76.7
MV4-11 [16]	93.3	88.2	103	85.5	94.9
Mono-Mac-6 [18]	104	102	92.9	97.7	91.8
NOMO-1 [29]	112	96.2	95.6	117	99
SHI-1 [27]	96	101	102	107	104
THP-1 [26]	99.3	96.4	102	94.8	98.4

O=C(Oc1ccc([N+](=O)[O-])cc1)N1CCC(C(O)(c2ccc3c(c2)OCO3)c2ccc3c(c2)OCO3)CC1 [JZL184]
Details	IC50 (cell viability) [µM]
BV-173 [15]	> 10
HEL [13]	> 10
HL-60 [10]	> 10
K-562 [2]	> 10
KCL-22 [4]	> 10
KG-1 [6]	> 10
KU-812 [9]	> 10
LAMA-84 [7]	> 10
ML-2 [5]	> 10
MOLM-13 [8]	> 10
MV4-11 [1]	> 10
Mono-Mac-6 [3]	> 10
NOMO-1 [14]	> 10
SHI-1 [12]	> 10
THP-1 [11]	> 10

cell viability [%]
Details	1 nM	10 nM	100 nM	1000 nM	10000 nM
BV-173 [30]	95.2	96.5	90.7	92.9	69.4
HEL [28]	97.3	114	120	90.6	97.4
HL-60 [25]	96.9	98.8	105	103	101
K-562 [17]	92.8	110	106	87	95.7
KCL-22 [19]	90.8	108	112	105	92.3
KG-1 [21]	101	107	100	104	94
KU-812 [24]	101	102	112	90.5	85.8
LAMA-84 [22]	97	102	95.9	89.7	96.6
ML-2 [20]	102	112	114	104	98.9
MOLM-13 [23]	92.2	100	117	107	92.9
MV4-11 [16]	94.9	95.7	98.9	94.5	88.5
Mono-Mac-6 [18]	90.2	111	104	103	92.3
NOMO-1 [29]	101	99.5	102	102	95.2
SHI-1 [27]	110	97.9	129	103	90.7
THP-1 [26]	97.2	103	95.4	101	96.2

O=C1N[C@@H]2[C@@H](O)[C@@H](O)[C@H](O)[C@@H](CO)N2C1=O [Kifunensine]
Details	IC50 (cell viability) [µM]
BV-173 [15]	> 10
HEL [13]	> 10
HL-60 [10]	> 10
K-562 [2]	> 10
KCL-22 [4]	> 10
KG-1 [6]	> 10
KU-812 [9]	> 10
LAMA-84 [7]	> 10
ML-2 [5]	> 10
MOLM-13 [8]	> 10
MV4-11 [1]	> 10
Mono-Mac-6 [3]	> 10
NOMO-1 [14]	> 10
SHI-1 [12]	> 10
THP-1 [11]	> 10

cell viability [%]
Details	1 nM	10 nM	100 nM	1000 nM	10000 nM
BV-173 [30]	95	106	114	86.7	90.5
HEL [28]	99.6	105	125	87.8	109
HL-60 [25]	102	90.6	120	120	144
K-562 [17]	93.2	102	99.3	87.6	107
KCL-22 [19]	107	104	102	89	101
KG-1 [21]	96.1	93.2	112	88.6	85.6
KU-812 [24]	92.5	98.4	106	83.4	96.2
LAMA-84 [22]	103	98.6	114	84.4	107
ML-2 [20]	96.5	95.4	116	95.7	90.9
MOLM-13 [23]	76.3	105	117	81.3	130
MV4-11 [16]	96.4	96.3	103	82.9	72.1
Mono-Mac-6 [18]	91.8	102	107	88.7	92.4
NOMO-1 [29]	103	102	110	88.7	100
SHI-1 [27]	96.9	99.9	105	107	136
THP-1 [26]	98.6	95.2	97.7	89	104

CC(C)(CCCCCCCCCCC(C)(C)CC(=O)O)CC(=O)O [MEDICA 16]
Details	IC50 (cell viability) [µM]
BV-173 [15]	> 10
HEL [13]	> 10
HL-60 [10]	> 10
K-562 [2]	> 10
KCL-22 [4]	> 10
KG-1 [6]	> 10
KU-812 [9]	> 10
LAMA-84 [7]	> 10
ML-2 [5]	> 10
MOLM-13 [8]	> 10
MV4-11 [1]	> 10
Mono-Mac-6 [3]	> 10
NOMO-1 [14]	> 10
SHI-1 [12]	> 10
THP-1 [11]	> 10

cell viability [%]
Details	1 nM	10 nM	100 nM	1000 nM	10000 nM
BV-173 [30]	105	89.4	98.5	94.2	106
HEL [28]	116	108	95.2	110	119
HL-60 [25]	109	114	98	116	108
K-562 [17]	114	108	103	96.8	117
KCL-22 [19]	119	97.4	107	107	98.7
KG-1 [21]	91.7	95.8	98.6	107	99.8
KU-812 [24]	106	94.2	101	106	97.8
LAMA-84 [22]	110	85.8	99.3	98.6	97.8
ML-2 [20]	104	99.4	96.3	101	91.5
MOLM-13 [23]	113	97.1	107	79.4	96.7
MV4-11 [16]	124	105	94	102	116
Mono-Mac-6 [18]	99.8	114	102	102	111
NOMO-1 [29]	100	95.3	101	101	103
SHI-1 [27]	121	104	102	98.2	90.7
THP-1 [26]	103	94.8	97.2	96.5	99.3

Cc1nnc(-c2ccc(N3CCC(Oc4ccccc4C(F)(F)F)CC3)nn2)s1 [MF-438]
Details	IC50 (cell viability) [µM]
BV-173 [15]	> 10
HEL [13]	> 10
HL-60 [10]	> 10
K-562 [2]	0.0472
KCL-22 [4]	2.29
KG-1 [6]	> 10
KU-812 [9]	> 10
LAMA-84 [7]	> 10
ML-2 [5]	> 10
MOLM-13 [8]	0.0687
MV4-11 [1]	9.32
Mono-Mac-6 [3]	> 10
NOMO-1 [14]	> 10
SHI-1 [12]	> 10
THP-1 [11]	> 10

cell viability [%]
Details	1 nM	10 nM	100 nM	1000 nM	10000 nM
BV-173 [30]	96.1	108	89.4	137	99.4
HEL [28]	102	91.9	106	122	106
HL-60 [25]	93.6	92.5	87	127	56.5
K-562 [17]	97	103	32.4	38.2	38.1
KCL-22 [19]	103	99.6	69	61.3	49.5
KG-1 [21]	62.5	133	94.3	115	106
KU-812 [24]	93.9	103	83.9	113	97.5
LAMA-84 [22]	93.4	85.4	88	76.9	92.6
ML-2 [20]	96	114	98.6	117	88.3
MOLM-13 [23]	63.7	86.7	33.9	41.3	36.6
MV4-11 [16]	91	109	91.2	99.2	45.3
Mono-Mac-6 [18]	101	100	95.5	99	103
NOMO-1 [29]	97.9	99.2	92.8	108	103
SHI-1 [27]	98.9	98.2	102	113	80.9
THP-1 [26]	97.9	110	96.5	102	98.1
